Measured values published in patent US5216001A, “Indole derivatives” (H. Lunbeck A/S, priority 1990, dated 1993).
Read-outs that look alike come from different tables or passages of the source.

Legend:
dopamine D-2 receptors = target: T1, dopamine D-2 receptors (Rattus norvegicus, UniProt P61169); assay: inhibition of 3H-spiperone binding to dopamine D-2 receptors in rat corpus striatum in vitro
T1 construct: striatal tissue is dissected and weighed; from tissue; host or cells: corpus striatum membranes of male Wistar rats
Description: INHIBITION OF ^3 H-SPIPERONE BINDING TO DOPAMINE D-2 RECEPTORS IN RAT CORPUS STRIATUM IN VITRO
By this method the inhibition by drugs of the binding of ^3 H-spiperone (0.5 nM) to dopamine D-2 receptors in membranes from rat corpus striatum is determined in vitro. Method and results in Hyttel and Larsen, J. Neurochem, 44, 1615-1622, 1985).
(§1) Male Wistar (Mol:Wistar) rats (125-250 g) are sacrificed and striatal tissue is dissected and weighed. The tissue is homogenized (Ultra Turrax, 10 sec.) in 10 ml of ice-cold 50 mM K-phosphate buffer pH 7.4 (at 25° C.). The homogenate is centrifuged twice at 20,000 g for 10 min. at 4° C. with rehomogenization of the pellet in 10 ml ice-cold buffer. The final pellet is homogenized in 1300 vol (w/v) ice-cold buffer.
Incubation tubes kept on ice in triplicate receive 100 μl of drug solution in water (or water for total binding) and 4000 μl of tissue suspension (final tissue content corresponds to 3.08 mg original tissue). The binding experimental is initiated by addition of 100 μl of ^3 H-spiperone (final concentration 0.5 nM) and by placing the tubes in a 37° C. water bath. After incubation for 10 min. the samples are filtered under vacuum (0-50 mBar) through Whatman GF/F filters (25 mm). The tubes are rinsed with 5 ml ice-cold buffer which are then poured on the filters. Thereafter, the filters are washed with 2×5 ml of buffer. The filters are placed in counting vials and 4 ml of appropriate scintillation fluid (e.g. Picofluor ™15) are added. After shaking for 1 h and storage 2 hrs in the dark the content of radioactivity is determined by liquid scintillation counting. Specific binding is obtained by subtracting the nonspecific binding in the presence of 10 μM of 6,7-ADTN.
(§2) For determination of the inhibition of binding five concentrations of drugs covering 3 decades are used.
England, specific activity 15-25 Ci/mmol.

α1 adrenoceptors = assay: inhibition of 3H-prazosin binding to α1 adrenoceptors in rat brain in vitro; conditions: 3H-prazosin 0.25 nM, rat brain membranes, read-out: Binding IC50, 3H Praz.
Description: INHIBITION OF ^3 H-PRAZOSIN BINDING TO α1 ADRENOCEPTORS IN RAT BRAIN IN VITRO
Method and results in Hyttel and Larsen, J. Neurochem, 44, 1615-1622, 1985; Skarsfeldt and Hyttel, Eur. J. Pharmacol. 125, 323-340, 1986.
as §1, with “(Mol:Wist)” for “(Mol:Wistar)”, “(125-200” for “(125-250”, “brain” for “striatal”, “[…] Tris” for “mM K-phosphate”, “7.7” for “7.4”, “400” for “1300”
Incubation tubes kept on ice in triplicate receive 100 μl of drug solution in water (or water for total binding) and 4000 μl of tissue suspension (final tissue content corresponds to 10 mg original tissue). The binding experiment is initiated by addition of 100 μl of ^3 H-Prazosin (final concentration 0.25 nM) and by placing the tubes in a 25° C. water bath. After incubation for 20 min. the samples are filtered under vacuum (0-50 mBar) through Whatman GF/F filters (25 mm). The tubes are rinsed with 5 ml ice-cold buffer which then are poured on the filters. Thereafter, the filters are washed with 5 ml of buffer. The filters are placed in counting vials and 4 ml of appropriate scintillation fluid (e.g. Picofluor™15) are added. After shaking for 1 h and storage 2 hrs in the dark the content of radioactivity is determined by liquid scintillation counting. Specific binding is obtained by subtracting the nonspecific binding in the presence of 1 μM of Prazosin.
as §2
The measured cpm are plotted against drug concentration on semilogarithmic paper and the best fitting S-shaped curve is drawn. The IC50 value is determined as the concentration at which the binding is 50% of the total binding in control samples minus the nonspecific binding in the presence of 1 μM of Prazosin. ^3 H-Prazosin=[furoyl-5-^3 H]-Prazosin from New England Nuclear, specific activity approximately 20 Ci/mmol.

[1] = target: T2, serotonin S2 (5-HT2) receptors (Rattus norvegicus, UniProt P14842); assay: inhibition of 3H-ketanserin binding to serotonin S2 (5-HT2) receptors in rat cortex in vitro; conditions: 3H-ketanserin 0.5 nM, rat cortex membranes, read-out: Binding IC50, 3H Ket.
T2 construct: cortical tissue is dissected and weighed; from tissue; host or cells: cerebral cortex membranes of male Wistar (Mol:Wist) rats
Description: Method in Hyttel, Pharmacology & Toxicology, 61, 126-129. 1987.
Male Wistar (Mol:Wist) rats (125-250 g) are sacrifices and cortical tissue is dissected and weighed. The tissue is homogenized (Ultra Turrax, 10 sec.) in 10 ml of ice-cold 50 mM tris buffer pH 7.7 (at 25° C.). The centrifuge glassware used in this step has been rinsed by sonication for 10 min. in ethanol. The homogenate is centrifuged twice at 20,000 g for 10 min. at 4° C. with rehomogenization of the pellet in 10 ml ice-cold buffer. The final pellet is homogenized in 500 vol (w/v) ice-cold buffer.
Incubation tubes kept on ice in triplicate receive 100 μl of drug solution in water (or water for total binding) and 2000 μl of tissue suspension (final tissue content corresponds to 4 mg original tissue). […] After incubation for 30 min. the samples are filtered under vacuum (0-50 mBar) through Whatman GF/F filters (25 mm). The tubes are rinsed with 5 ml ice-cold buffer which are then poured on the filters. Thereafter, the filters are washed with 2×5 ml of buffer. The filters are placed in counting vials and 4 ml of appropriate scintillation fluid (e.g., Picofluor™15) are added. After shaking for 1 h and storage 2 hrs in the dark the content of radioactivity is determined by liquid scintillation counting. Specific binding is obtained by subtracting the nonspecific binding in the presence of 1 μM mianserin. For determination of the inhibition of binding five concentrations of drugs covering 3 decades are used.
The IC50 value is determined as the concentration at which the binding is 50% of the total binding in control samples minus the nonspecific binding in the presence of 1 μM mianserin.

[2] = 3H-spiperone 0.5 nM, rat corpus striatum membranes, in vitro, read-out: Binding IC50, 3H Spi.

T2 sequence (P14842 whole entry): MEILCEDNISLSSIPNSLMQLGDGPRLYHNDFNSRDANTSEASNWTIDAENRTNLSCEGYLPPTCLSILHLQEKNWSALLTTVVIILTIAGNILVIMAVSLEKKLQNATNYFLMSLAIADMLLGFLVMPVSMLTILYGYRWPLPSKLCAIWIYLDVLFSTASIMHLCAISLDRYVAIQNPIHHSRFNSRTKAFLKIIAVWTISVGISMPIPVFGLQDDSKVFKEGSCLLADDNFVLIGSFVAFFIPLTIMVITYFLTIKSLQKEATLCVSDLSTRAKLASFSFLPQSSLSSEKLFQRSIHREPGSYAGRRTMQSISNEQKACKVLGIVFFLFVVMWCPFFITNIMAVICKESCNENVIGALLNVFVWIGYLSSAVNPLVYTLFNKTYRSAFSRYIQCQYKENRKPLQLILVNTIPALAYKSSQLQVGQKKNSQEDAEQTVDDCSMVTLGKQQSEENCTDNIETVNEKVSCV
T1 sequence (P61169 whole entry): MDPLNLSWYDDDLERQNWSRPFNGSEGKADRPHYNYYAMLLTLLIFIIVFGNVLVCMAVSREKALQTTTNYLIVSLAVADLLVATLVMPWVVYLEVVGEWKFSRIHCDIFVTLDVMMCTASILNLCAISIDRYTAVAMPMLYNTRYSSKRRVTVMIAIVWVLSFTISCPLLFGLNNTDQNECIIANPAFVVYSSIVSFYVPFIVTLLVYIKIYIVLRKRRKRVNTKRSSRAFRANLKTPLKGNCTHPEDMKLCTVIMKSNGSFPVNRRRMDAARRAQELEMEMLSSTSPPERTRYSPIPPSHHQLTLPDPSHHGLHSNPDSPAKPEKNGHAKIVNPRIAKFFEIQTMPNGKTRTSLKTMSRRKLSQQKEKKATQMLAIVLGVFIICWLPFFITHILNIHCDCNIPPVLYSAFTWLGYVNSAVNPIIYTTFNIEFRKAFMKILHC

Row | SMILES | IC50 (dopamine D-2 receptors) [nM] | IC50 (α1 adrenoceptors) [nM] | IC50 [1] [nM] | IC50 (dopamine D-2 receptors; [2]) [nM]
1 | CC(C)N1CCN(CCN2CC=C(c3cn(-c4ccc(F)cc4)c4cc(Cl)ccc34)CC2)C1=O [Compound 2a, 6-chloro-1-(4-fluorophenyl)-3-[1-[2-[3-(2-propyl)-2-imidazolidinon-1-yl]ethyl]-1,2,3,6-tetrahydropyridin-4-yl]-1H-indole] | 66 | 55 | 3.5 | –
2 | CC(C)N1CCN(CCN2CCC(c3cn(-c4ccc(F)cc4)c4cc(C(F)(F)F)ccc34)CC2)C1=O [Compound 4c, 1-(4-fluorophenyl)-3-[1-[2-[3-(2-propyl)-2-imidazolidinon-1-yl]ethyl]-4-piperidyl]-6-trifluoromethyl-1H-indole] | – | 91 | 2.9 | 280
3 | O=C1CCCN1CCN1CCC(c2cn(-c3ccc(F)cc3)c3cc(C(F)(F)F)ccc23)CC1 [Compound 4e, 1-(4-fluorophenyl)-3-[1-[2-(2-pyrrolidinon-1-yl)ethyl]-4-piperidyl]-6-trifluoromethyl-1H-indole] | – | 49 | 2.8 | 300
4 | COc1ccc2c(C3CCN(CCN4CCN(C(C)C)C4=O)CC3)cn(-c3ccc(F)cc3)c2c1 [Compound 4i, 1-(4-fluorophenyl)-6-methyoxy-3-[1-[2-[3-(2-propyl)-2-imidazolidinon-1-yl]ethyl]-4-piperidyl]-1H-indole] | – | 140 | 7.1 | 710
5 | CC(C)c1ccc2c(C3CCN(CCN4CCN(C(C)C)C4=O)CC3)cn(-c3ccc(F)cc3)c2c1 [Compound 5c, 1-(4-fluorophenyl)-6-(2-propyl)-3-[1-[2-[3-(2-propyl)-2-imidazolidinon-1-yl]ethyl]-4-piperidyl]-1H-indole] | – | 730 | 16 | 2000
6 | CC(C)N1CCN(CCN2CCC(c3cn(-c4ccc(F)cc4)c4cc(C#N)ccc34)CC2)C1=O [Compound 5i, 6-cyano-1-(4-fluorophenyl)-3-[1-[2-[3-(2-propyl)-2-imidazolidinon-1-yl]ethyl]-4-piperidyl]-1H-indole] | – | – | 8.6 | 1100
7 | N#Cc1ccc2c(C3CCN(CCN4CCNC4=O)CC3)cn(-c3ccc(F)cc3)c2c1 [Compound 5j, 6-cyano-1-(4-fluorophenyl)-3-[1-[2-(2-imidazolidinon-1-yl)ethyl]-4-piperidyl]-1H-indole] | – | – | 13 | 1500
8 | CC(C)N1CCN(CCN2CCN(c3cn(-c4ccc(F)cc4)c4cc(Cl)ccc34)CC2)C1=O [Compound 6a, 6-chloro-1-(4-fluorophenyl)-3-[4-[2-[3-(2-propyl)-2-imidazolidinon-1-yl]ethyl]-1-piperazinyl]-1H-indole] | – | – | 2.7 | 81
9 | Cc1ccc2c(C3CCN(CCNC(=O)NC(C)C)CC3)cn(-c3ccc(F)cc3)c2c1 [Compound 9a, 1-(4-fluorophenyl)-3-[1-[2-[3-(2-propyl)-1-ureido]-1-ethyl]-4-piperidyl]-6-methyl-1H-indole] | – | 76 | 1.8 | 300
10 | CCN(CCN1CCC(c2cn(-c3ccc(F)cc3)c3cc(Cl)ccc23)CC1)C(=O)NC(C)C [Compound 9d, 6-chloro-1-(4-fluorophenyl)-3-[1-[2-[1-ethyl-3-(2-propyl)-1-ureido]-1-ethyl]-4-piperidyl]-1H-indole] | – | – | 1.9 | 150
11 | CC(C)N1CCN(CCN2CCC(c3cn(-c4ccc(F)cc4)c4cc(Cl)ccc34)CC2)C1=S [Compound 13a, 6-chloro-1-(4-fluorophenyl)-3-[1-[2-[3-(2-propyl)-2-imidazolidinthion-1-yl]ethyl]-4-piperidyl]-1H-indole] | – | 110 | 4.4 | 270
12 | Cc1ccc2c(C3CCN(CCN4CCN(C(C)C)C4=O)CC3)cn(-c3cccs3)c2c1 [Compound 15b, 6-methyl-3-[1-[2-[3-(2-propyl)-2-imidazolidinon-1-yl]ethyl]-4-piperidyl]-1-(2-thie-nyl)-1H-indole] | – | – | 6.7 | 2500
13 | Cc1ccc2c(C3CCN(CCN4CCN(C(C)C)C4=O)CC3)cn(-c3ccsc3)c2c1 [Compound 15c, 6-methyl-3-[1-[2-[3-(2-propyl)-2-imidazolidinon-1-yl]ethyl]-4-piperidyl]-1-(3-thie-nyl)-1H-indole] | – | 330 | 2.6 | 1000
14 | Cc1ccc2c(C3CCN(CCN4CCN(C(C)C)C4=O)CC3)cn(-c3ccoc3)c2c1 [Compound 15d, 1-(3-furanyl)-6-methyl-3-[1-[2-[3-(2-propyl)-2-imidazolidinon-1-yl]ethyl]-4-piperi-dyl]-1H-indole] | – | – | 9.3 | 4500
15 | Cc1ccc2c(C3CCN(CCN4CCN(C(C)C)C4=O)CC3)cn(-c3ccncc3)c2c1 [Compound 15e, 6-methyl-3-[1-[2-[3-(2-propyl)-2-imidazolidinon-1-yl]ethyl]-4-piperidyl]-1-(4-pyri-dyl)-1H-indole] | – | – | 7.6 | 3500
16 | Cc1ccc2c(C3CCN(CCN4CCN(C(C)C)C4=O)CC3)cn(-c3ccccc3F)c2c1 [Compound 15f, 1-(2-fluorophenyl)-3-[1-[2-[3-(2-propyl)-2-imidazolidinon-1-yl]ethyl]-4-piperidyl]-6-methyl-1H-indole] | – | 370 | 2.5 | 730
17 | Cc1ccc2c(C3CCN(CCN4CCN(C(C)C)C4=O)CC3)cn(-c3cccc(C(F)(F)F)c3)c2c1 [Compound 15i, 3-[1-[2-[3-(2-propyl)-2-imidazolidinon-1-yl]ethyl]-4-piperidyl]-6-methyl-1-(3-trifluoromethylphenyl)-1H-indole] | – | – | 150 | 3200
18 | O=C1NCCN1CCN1CCC(c2cn(-c3ccccc3)c3cc(Cl)ccc23)CC1 [Compound 15m, 6-chloro-3-[1-[2-[2-imidazolidinon-1-yl]ethyl]-4-piperidyl]-1-phenyl-1H-indole] | – | – | 4.4 | 410
